Activity calls are given as the source filed them. The rule behind the calls is not given here.
Legend:
[1] = biological target: DNA-directed RNA polymerase, mitochondrial (Homo sapiens) (UniProt O00411); experiment: Inhibition of human POLRMT in human MIA PaCa-2 cells assessed as mitochondria coded ubiquinone oxidoreductase core subunit 1 (ND I) transcript level at 500 nM measured after 24 hrs by RT-qPCR analysis relative to control; parameters: scale not given: the % may be the effect or the level left
[2] = tested on: MIA PaCa-2; experiment: Antiproliferative activity against human MIA PaCa-2 cells assessed as cell viability measured after 168 hrs incubation by SRB assay; assay type: functional, cell-based; conditions: MIA PaCa-2, 168 h
[3] = tested on: MIA PaCa-2; experiment: Effect on mitochondrial membrane potential loss in human MIA PaCa-2 cells assessed as change in membrane potential at 0.1 to 5 uM incubated for 96 hrs by JC-1 staining based flow cytometry analysis; assay type: functional, cell-based; conditions: dose 0.1-5 µM
[4] = tested on: MIA PaCa-2; experiment: Induction of intracellular ROS generation in human MIA PaCa-2 cells at 0.1 to 5 uM incubated for 96 hrs by DCFH-DA staining based flow cytometry; assay type: functional, cell-based; conditions: dose 0.1-5 µM
[5] = tested on: MIA PaCa-2; experiment: Reduction in number of mitochondria in human MIA PaCa-2 cells measured after 96 hrs by Mito-Tracker Green and DAPI staining based assay; assay type: functional, cell-based; conditions: dose 10-1000 nM
[6] = Antiproliferative activity against human […] cells assessed as cell viability measured after 168 hrs incubation by SRB assay; assay type: functional, cell-based
[7] = tested on: PANC-1; experiment: Antiproliferative activity against human PANC-1 cells assessed as cell viability measured after 168 hrs incubation by SRB assay; assay type: functional, cell-based; conditions: PANC-1, 168 h
[8] = tested on: CAPAN-1; experiment: Antiproliferative activity against human CAPAN-1 cells assessed as cell viability measured after 168 hrs incubation by SRB assay; assay type: functional, cell-based; conditions: CAPAN-1, 168 h
[9] = Antiproliferative activity against HUVEC cells assessed as cell viability measured after 168 hrs incubation by SRB assay; assay type: toxicity, cell-based; conditions: human
[10] = tested on: MIA PaCa-2; experiment: In vivo antitumor activity against human MIA PaCa-2 cells xenografted in BALB/c mouse assessed as reduction in tumor weight at 100 mg/kg, iv once daily for 25 consecutive day after 2 weeks of cells injection relative to control; assay type: functional; conditions: MIA PaCa-2, 600 h, time 25 day
[11] = Toxicity in BALB/c mouse xenografted with human MIA PaCa-2 cells assessed as pathological change in liver at 100 mg/kg, iv once daily for 25 consecutive day after 2 weeks of cells injection by H and E staining based optical microscopic analysis; assay type: organism-based; conditions: in vivo, 336 h
[12] = Toxicity in BALB/c mouse xenografted with human MIA PaCa-2 cells assessed as pathological change in spleen at 100 mg/kg, iv once daily for 25 consecutive day after 2 weeks of cells injection by H and E staining based optical microscopic analysis; assay type: organism-based; conditions: in vivo, 336 h
[13] = Toxicity in BALB/c mouse xenografted with human MIA PaCa-2 cells assessed as pathological change in lung at 100 mg/kg, iv once daily for 25 consecutive day after 2 weeks of cells injection by H and E staining based optical microscopic analysis; assay type: organism-based; conditions: in vivo, 336 h
[14] = Toxicity in BALB/c mouse xenografted with human MIA PaCa-2 cells assessed as pathological change in kidney at 100 mg/kg, iv once daily for 25 consecutive day after 2 weeks of cells injection by H and E staining based optical microscopic analysis; assay type: organism-based; conditions: in vivo, 336 h
[15] = Toxicity in BALB/c mouse xenografted with human MIA PaCa-2 cells assessed as pathological change in heart at 100 mg/kg, iv once daily for 25 consecutive day after 2 weeks of cells injection by H and E staining based optical microscopic analysis; assay type: organism-based; conditions: in vivo, 336 h
[16] = tested on: MIA PaCa-2; experiment: Potency index, ratio of IMT1B IC50 to test compound […] for antiproliferative activity against human MIA PaCa-2 cells assessed as cell viability measured after 168 hrs incubation by SRB assay; assay type: functional

Sequence of DNA-directed RNA polymerase, mitochondrial (Homo sapiens) (O00411 whole entry): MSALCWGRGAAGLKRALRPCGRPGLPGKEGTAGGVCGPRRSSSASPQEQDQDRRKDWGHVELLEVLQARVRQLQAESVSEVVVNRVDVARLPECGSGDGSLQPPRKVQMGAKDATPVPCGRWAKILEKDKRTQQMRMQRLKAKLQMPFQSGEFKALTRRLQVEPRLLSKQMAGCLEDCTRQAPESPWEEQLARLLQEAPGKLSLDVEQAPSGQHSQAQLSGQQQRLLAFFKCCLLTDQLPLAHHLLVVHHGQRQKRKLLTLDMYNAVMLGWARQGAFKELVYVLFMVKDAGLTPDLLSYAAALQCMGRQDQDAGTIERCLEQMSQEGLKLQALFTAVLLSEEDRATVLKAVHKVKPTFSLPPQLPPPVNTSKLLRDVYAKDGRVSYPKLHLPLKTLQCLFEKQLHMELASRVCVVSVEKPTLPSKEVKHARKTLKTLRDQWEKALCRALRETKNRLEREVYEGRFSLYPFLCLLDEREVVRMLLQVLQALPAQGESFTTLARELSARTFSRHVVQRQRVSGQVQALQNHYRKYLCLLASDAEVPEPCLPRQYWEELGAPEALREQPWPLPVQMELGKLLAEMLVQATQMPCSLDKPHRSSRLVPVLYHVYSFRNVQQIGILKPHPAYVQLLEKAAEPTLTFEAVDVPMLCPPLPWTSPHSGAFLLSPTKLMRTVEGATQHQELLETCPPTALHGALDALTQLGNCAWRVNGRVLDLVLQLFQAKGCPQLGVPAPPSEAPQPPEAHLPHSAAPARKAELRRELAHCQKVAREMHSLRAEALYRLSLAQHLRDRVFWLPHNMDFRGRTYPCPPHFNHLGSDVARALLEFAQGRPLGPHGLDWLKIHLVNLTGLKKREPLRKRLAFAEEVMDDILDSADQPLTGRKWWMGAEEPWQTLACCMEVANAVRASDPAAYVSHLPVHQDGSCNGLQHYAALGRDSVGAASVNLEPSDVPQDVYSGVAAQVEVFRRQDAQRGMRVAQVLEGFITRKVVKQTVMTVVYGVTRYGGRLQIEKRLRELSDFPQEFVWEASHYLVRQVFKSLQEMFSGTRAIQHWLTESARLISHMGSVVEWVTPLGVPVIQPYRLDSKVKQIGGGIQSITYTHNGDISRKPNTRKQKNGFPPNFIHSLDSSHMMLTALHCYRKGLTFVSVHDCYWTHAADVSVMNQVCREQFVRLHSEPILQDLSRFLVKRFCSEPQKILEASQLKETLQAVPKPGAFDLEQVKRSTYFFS

Row | Activity [1] | IC50 [2] | SMILES | also measured
1 | 35% | 456 nM | C[C@@H](Oc1cc2oc(=O)cc(-c3ccc(F)cc3Cl)c2cc1F)C(=O)N1CCCC1 | –
2 | 22% | 139 nM | C[C@@H](Oc1cc2oc(=O)cc(-c3ccc(F)cc3Cl)c2cc1F)C(=O)NCC(F)F | –
3 | 30% | – | C[C@@H](Oc1cc2oc(=O)cc(-c3ccc(F)cc3Cl)c2cc1Cl)C(=O)N1CCC[C@H](C(=O)O)C1 | –
4 | 26% | 294 nM | C[C@@H](Oc1cc2oc(=O)cc(-c3ccc(F)cc3Cl)c2cc1F)C(=O)NCC1CC1 | –
5 | 60% | 3240 nM | CCN(CC)C(=O)[C@@H](C)Oc1cc2oc(=O)cc(-c3cccc(Cl)c3)c2cc1F | –
6 | 26% | 305 nM | C[C@@H](Oc1cc2oc(=O)cc(-c3ccc(F)cc3Cl)c2cc1F)C(=O)N1CCCC(C#N)C1 (stereo partly drawn) | –
7 | 85% | > 5000 nM | C[C@@H](Oc1cc(Cl)c2c(-c3ccc(F)cc3Cl)cc(=O)oc2c1)C(=O)N1CCC[C@H](C(=O)O)C1 | –
8 | 19% | 115 nM | C[C@@H](Oc1cc2oc(=O)cc(-c3ccc(F)cc3Cl)c2cc1F)C(=O)N1CCC(F)CC1 | –
9 | 25% | 171 nM | C[C@@H](Oc1cc2oc(=O)cc(-c3ccc(F)cc3Cl)c2cc1F)C(=O)N(C)C | –
10 | 22% | 145 nM | C[C@@H](Oc1cc2oc(=O)cc(-c3ccc(F)cc3Cl)c2cc1F)C(=O)N1CCC[C@H](C(=O)O)C1 | –
11 | 13% | 44 nM | CCN(CC)C(=O)[C@@H](C)Oc1cc2oc(=O)cc(-c3ccc(F)cc3Cl)c2cc1F | Ratio IC50 [16]: 3
12 | 52% | 2230 nM | CO[C@H]1CC[C@@H](NC(=O)[C@@H](C)Oc2cc3oc(=O)cc(-c4ccc(F)cc4Cl)c3cc2F)CC1 | –
13 | 15% | 72 nM | C[C@@H](Oc1cc2oc(=O)cc(-c3ccc(F)cc3Cl)c2cc1F)C(=O)N1CCCOCC1 | –
14 | 30% | 400 nM | CCN(CC)C(=O)[C@@H](C)Oc1cc2oc(=O)cc(-c3ccccc3F)c2cc1F | –

The remaining lines, values behind:

Row | SMILES | Activity [1] | IC50 [2] | also measured
15 | C[C@@H](Oc1cc2oc(=O)cc(-c3ccc(F)cc3Cl)c2cc1F)C(=O)N(C)C1COC1 | 50% | 1690 nM | –
16 | C[C@@H](Oc1ccc2c(-c3ccc(F)cc3Cl)cc(=O)oc2c1Cl)C(=O)N1CCC[C@H](C(=O)O)C1 | 119% | > 5000 nM | –
17 | C[C@@H](Oc1ccc2c(-c3ccc(F)cc3Cl)cc(=O)oc2c1)C(=O)N1CCC[C@H](C(=O)O)C1 | 23% | 159 nM | Activity [3]: inactive; Activity [4]: inactive; Activity [5]: Dose-Dependent Effect; IC50 [6]: 67 nM; IC50 [7]: 1570 nM; IC50 [8]: 1350 nM; IC50 at 168 h [9]: > 50000 nM; inhibition in vivo at 100 mg/kg [10]: 44.8%; Activity [11]: Non-Toxic; Activity [12]: Non-Toxic; Activity [13]: Non-Toxic; Activity [14]: Non-Toxic; Activity [15]: Non-Toxic
18 | C[C@@H](Oc1cc2oc(=O)cc(-c3ccc(F)cc3Cl)c2cc1F)C(=O)N1CCCCC1 | 16% | 78 nM | –
19 | CCN(CC)C(=O)[C@@H](C)Oc1cc2oc(=O)cc(-c3cccc4ccccc34)c2cc1F | 42% | 739 nM | –
20 | C[C@@H](Oc1cc2oc(=O)cc(-c3ccc(F)cc3Cl)c2cc1F)C(=O)N1CCC1 | 33% | 493 nM | –
21 | CC1CCN(C(=O)[C@@H](C)Oc2cc3oc(=O)cc(-c4ccc(F)cc4Cl)c3cc2F)CC1 | 31% | 486 nM | –
22 | COc1cc2c(-c3ccc(F)cc3Cl)cc(=O)oc2cc1O[C@H](C)C(=O)N1CCC[C@H](C(=O)O)C1 | 67% | > 5000 nM | –
23 | CCN(CC)C(=O)[C@@H](C)Oc1cc2oc(=O)cc(-c3ccc(Cl)cc3)c2cc1F | 55% | 2240 nM | –
24 | CCN(CC)C(=O)[C@@H](C)Oc1cc2oc(=O)cc(-c3ccccc3)c2cc1F | 44% | 682 nM | –
25 | CCN(CC)C(=O)[C@@H](C)Oc1cc2oc(=O)cc(-c3ccccc3Cl)c2cc1F | 10% | 14 nM | –
26 | C[C@@H](Oc1cc2oc(=O)cc(-c3ccc(F)cc3Cl)c2cc1F)C(=O)NCCC#N | 51% | 1160 nM | –
27 | CCN(CC)C(=O)[C@@H](C)Oc1cc2oc(=O)cc(-c3ccccc3OC)c2cc1F | 48% | 1130 nM | –
28 | C[C@@H](Oc1cc2oc(=O)cc(-c3ccc(F)cc3Cl)c2cc1F)C(=O)N1CCC(Cl)CC1 | 34% | 523 nM | –
29 | CC(C)c1cc2c(-c3ccc(F)cc3Cl)cc(=O)oc2cc1O[C@H](C)C(=O)N1CCC[C@H](C(=O)O)C1 | 46% | 1090 nM | –
30 | C[C@@H](Oc1cc2oc(=O)cc(-c3ccc(F)cc3Cl)c2cc1F)C(=O)N1CCC(F)(F)CC1 | 28% | 377 nM | –

Reference: ChEMBL document CHEMBL5550206, “Identification of 6-Fluorine-Substituted Coumarin Analogues as POLRMT Inhibitors with High Potency and Safety for Treatment of Pancreatic Cancer” (J Med Chem, 2024)
